Tests used:
[1] = Release of lipophilic active B (DMP) from O/W emulsion by dialysis into external water, UV-Vis; format: physicochemical; details: O/W emulsion (tripalmitin particles 2J, WPI), after 2 days of storage
Method: Solid lipid particles were prepared according to Example 2J. Tripalmitin matrix contained lipophilic active A (Sudan III) and were stabilised in aqueous dispersion by WPI.
O/W emulsions were prepared according to Example 4. A model lipophilic active B (DMP-dimethyl phthalate) was added to the sunflower oil included phase.
Known quantity of the O/W emulsion (e.g. 10 g) was placed inside a pre-hydrated cellulose tube and dialysed to a known quantity of distilled water (e.g. 100 g), termed “external” water/aqueous phase. An aliquot (ca. 1 mL) of the external water was taken at time intervals, pressed through a syringe filter (0.2 μm pore size) and analysed using UV-Vis spectroscopy (at λ=290 nm). Using previously obtained calibration line and the partitioning (sunflower oil/water) data of DMP, the concentration of the released active B was calculated.

[2] = Release of lipophilic active (Sudan III) from W/O emulsion into external oil phase, UV-Vis; format: physicochemical; details: W/O emulsion Example 3C (tripalmitin particles 2C, Tween 20, sunflower oil continuous phase); burst release
Method: (§1) Solid lipid particles were prepared according to Example 2C. Tripalmitin particles contained the lipophilic active (Sudan III) and were stabilised in the aqueous dispersion by Tween™ 20. After preparation the excess surfactant was dialysed off to distilled water.

[3] = Release of lipophilic active A (Sudan III) from O/W emulsion into external oil phase, UV-Vis; format: physicochemical; details: O/W emulsion (tripalmitin particles 2J, WPI, sunflower oil), observation period of 4 days
Method: Known quantity of the O/W emulsion (e.g. 40 g) was placed in the beaker and gently topped up with a known quantity of sunflower oil (e.g. 50 g), termed “external” oil phase. An aliquot (ca. 1 mL) of the external oil phase was taken at time intervals, pressed through a syringe filter (0.2 μm pore size) and analysed using UV-Vis spectroscopy (at λ=510 nm). Using previously obtained calibration line, the concentration of the released active A was calculated.

[4] = Method: Known quantity of the W/O emulsion (e.g. 45 g) was gently placed on the top of a known quantity of distilled water (e.g. 70 g) termed “external” water/aqueous phase. Calibrated conductivity probe was placed in the external aqueous phase and readings were taken on daily intervals.
as §1
W/O emulsions were prepared according to Example 3C, 3D and 3E. Hydrophilic active (NaCl) was added to the aqueous included phase and sunflower or silicone or mineral oils were used as the continuous phase.
The release of NaCl was measured as per Example 5.

Q: With COC(=O)c1ccccc1C(=O)OC [DMP, dimethyl phthalate] as the molecule, how does the “release of active B from the dispersed sunflower oil phase” value [1] read?
A: 100%

Q: For Oc1ccc2ccccc2c1N=Nc1ccc(N=Nc2ccccc2)cc1 [Sudan III], which “time of storage to complete release of lipophilic active” value [2] is on record?
A: ≤ 10 h

Q: And the “release of active A from the lipid particles” value [3]?
A: below 1%

Q: For [Cl-].[Na+] [NaCl], which “release of hydrophilic active to external water phase” value ([4]; W/O emulsion Example 3C, sunflower oil, over 17 days) is on record?
A: very small

Q: And the “release of hydrophilic active upon heating” value ([4]; W/O emulsion, heating to 40° C., fat crystals at interface melt)?
A: all dispersed water phase with NaCl is delivered to the external water phase

Q: And the “release of the internal water phase with NaCl” value ([4]; water-in-mineral-oil emulsions (Example 3D), partially sintered particles)?
A: lower than for the non-sintered silicone oil emulsions and higher than the sintered sunflower oil emulsions

Q: What about the “release of NaCl to external water phase” value ([4]; water-in-silicone-oil emulsions (Example 3E), non-sintered particles) of the same molecule?
A: Relatively high release

Reference: patent US20170065952A1, “PICKERING EMULSION FORMULATIONS” (THE UNIVERSITY OF BIRMINGHAM, priority 2014, published 2017)
